In general, Inhibition refers to the share of the control response that was lost under treatment. By IC50 is commonly meant the point on the concentration scale where inhibition reaches its midpoint. In general, CC50 refers to the concentration giving 50% cytotoxicity. As usually defined, the EC50 is the concentration that produces a half-maximal response. As usually defined, the inhibition is the share of the control response that was lost under treatment.

In experiment [1] the test system is Brugia pahangi. Briefly: AntiBrugia pahangi activity Average inhibition motility at 10 uM (%). It counts as functional.
In experiment [2] the test system is Brugia pahangi. As to the kind of experiment: AntiBrugia pahangi activity Average day 3 IC50 (uM). The format is functional, organism-based. As to conditions: 72 h.
In experiment [3] the test system is Onchocerca gutturosa. Briefly: AntiOnchocerca activity O. gutturosa adult males: Motility reduction at 12.5 uM (%). The format is functional. Details: scale not given: the % may be the effect or the level left.
Experiment [4] deals with Onchocerca gutturosa. Briefly: AntiOnchocerca activity O. gutturosa adult males: MTT reduction at 12.5 uM (%). Details: scale not given: the % may be the effect or the level left. It counts as functional. For orientation: Formazan colour is commonly taken as a measure of viable cells.
In experiment [5] the test system is Onchocerca lienalis. As to the kind of experiment: AntiOnchocerca activity O. lienalis microfilariae Motility reduction (%). The format is functional. Details: concentration or dose not given beside the values.
The subject of experiment [6] is Onchocerca ochengi. Briefly: AntiOnchocerca activity O. ochengi adult females: final mean inhibition motility at 10 uM on Day 7 (%). It counts as functional.
Experiment [7] relates to Onchocerca ochengi. Briefly: AntiOnchocerca activity O. ochengi adult males: final mean inhibition motility at 10 uM on Day 5 (%). It counts as functional.
Experiment [8] concerns Onchocerca volvulus. As to the kind of experiment: AntiOnchocerca activity O. volvulus L3 Molting assay: inhibition at 10 uM (%). It counts as functional.
In experiment [9] the test system is Onchocerca volvulus. Briefly: AntiOnchocerca activity O. volvulus L3 Molting assay: IC50 (uM). The format is functional, organism-based.
Experiment [10] has as its system HepG2. As to the kind of experiment: Cytotoxicity data HepG2 CC20 (uM). The format is functional.
Experiment [11] in a line: HL60 CC50 (uM) Cytotoxicity. It counts as functional. As to conditions: HL-60.
Experiment [12] concerns Wolbachia. As to the kind of experiment: Anti-Wolbachia activity Reduction in Wolbachia infected cells at 10 uM (%). It counts as functional, cell-based. Details: Activity: scale not given: the % may be the effect or the level left.
The test system of experiment [13] is Onchocerca gutturosa. Briefly: AntiOnchocerca activity O. gutturosa adult males: EC50 (uM). The format is functional, organism-based.
Experiment [14] deals with Onchocerca lienalis. Briefly: AntiOnchocerca activity O. lienalis microfilariae EC50 (uM). It counts as functional, organism-based.
The subject of experiment [15] is Brugia malayi. Briefly: AntiBrugia malayi activity Effect on motility. It counts as functional, organism-based.
Experiment [16] relates to Ancylostoma ceylanicum. Briefly: microbe, parasite or virus in culture.
Description: AntiAncylostoma ceylanicum activity Inhibition at 200 uM (%)
Experiment [17] deals with Ancylostoma ceylanicum. Briefly: microbe, parasite or virus in culture. The source holds these as a separate data set.
Description: AntiAncylostoma ceylanicum activity Inhibition at 50 uM(%)
Experiment [18] relates to Toxoplasma gondii. As to the kind of experiment: AntiToxoplasma gondii activity data Inhibition of plaque forming efficiency (%) Experiment A. It counts as functional. Details: concentration or dose not given beside the values.
Experiment [19] deals with Toxoplasma gondii. Briefly: AntiToxoplasma gondii activity data 2-day killing assay: inhibition at 10 uM (%) Experiment C. As to conditions: 48 h. It counts as functional.
For experiment [20], the system named is Toxoplasma gondii. As to the kind of experiment: AntiToxoplasma gondii activity data 2-day killing assay: inhibition at 10 uM (%) Experiment D. The format is functional.
Experiment [21] relates to Toxoplasma gondii. Briefly: AntiToxoplasma gondii activity data 2-day killing assay: inhibition at 10 uM (%) Experiment E. The format is functional.
Experiment [22] has as its system Toxoplasma gondii. As to the kind of experiment: AntiToxoplasma gondii activity data 2-day killing assay: IC50 (uM), Experiment F. It counts as functional, organism-based. To be noted: Toxoplasma gondii, 48 h; read-out: IC50.
Experiment [23] concerns Toxoplasma gondii. As to the kind of experiment: AntiToxoplasma gondii activity data 2-day killing assay: IC50 (uM), Experiment G. The format is functional, organism-based. As to conditions: Toxoplasma gondii, 48 h; read-out: IC50.
The test system of experiment [24] is CHO. As to the kind of experiment: CHO CC50 (uM) Cytotoxicity. It counts as functional. To be noted: Cricetulus griseus.

For `CCCCc1ccc(NC(=O)Nc2ccc(O[C@H]3CCCC[C@@H]3N(C)c3ccccc3)c(F)c2)cc1`, the Inhibition in experiment [1] came out at 61%; in [6], 57%; in [7], 61%; in experiment [8], 100%. Also, the IC50 came to 8.4 µM in experiment [2] and 1.09 µM in experiment [9]. Also, the Activity worked out at 14.3% in experiment [3], 0% in experiment [4] and 33.3% in [5]. For the same compound, in experiment [10], the CC20 is 5.77 µM. The CC50 in experiment [11] was greater than 6.2 µM.
`CCS(=O)(=O)N(Cc1ccco1)Cc1cc2ccc(C)cc2nc1O` yielded an Activity in experiment [12] of 52%. This compound also showed a CC20 in experiment [10] greater than 80 µM.
With `Cc1[nH]c2cc(F)cc(F)c2c(=O)c1-c1ccc(Oc2ccc(OC(F)(F)F)cc2)cc1`, the Activity in [3] is 58.9%; in [4], 56.9%; in experiment [5] it was 100%. Moreover, the EC50 worked out at 2.91 µM in [13] and 1.37 µM in [14]. The CC20 in [10] was greater than 80 µM.
Compound `CC1(C)OB(O)c2ccc(C3=NOC(c4cc(Cl)c(F)c(Cl)c4)(C(F)(F)F)C3)cc21` (stereo not given) registered an Inhibition in experiment [15] of 50%. This compound also had a CC20 in experiment [10] of 15.4 µM.
Turning to `CN1CCCC1CCO[C@](C)(c1ccccc1)c1ccc(Cl)cc1` (stereo not given in full), in experiment [10], the CC20 came to 9.28 µM. For the same compound, the inhibition at 200 µM in experiment [16] stood at 76%. This compound also yielded an inhibition at 50 µM in [17] of 47%.
For the compound `O=C(Nc1nnc(S)s1)c1cc(Br)ccc1Cl`, the Inhibition in experiment [1] was 69%; in experiment [6], 4%; in [7], 0%; in experiment [8], 36%. Besides, in experiment [2], the IC50 was determined as 9.4 µM. For the same compound, the Activity was found to be 29% in experiment [3], 0% in [4] and 27% in [5]. Moreover, in experiment [10], the CC20 is greater than 80 µM. Moreover, the CC50 in experiment [11] was greater than 50 µM.
Regarding `Cc1cc(C2=NOC(c3cc(Cl)c(F)c(Cl)c3)(C(F)(F)F)C2)ccc1C(=O)NCc1ccc2c(c1)C(C)(C)OB2O` (stereo not given), half-maximal inhibition in experiment [15] (Brugia malayi) (IC50) was put at 3.04 µM. Moreover, in experiment [10], the CC20 amounted to 10.9 µM.
With `Nc1ncnc2c1c(-c1cnc3ccccc3c1)nn2CC1CCNCC1`, the Inhibition was roughly 60% in [18], 72.3% in experiment [20] and 92.8% in experiment [21]. In [19], the inhibition at 10 µM amounted to 48.8%. Further, the IC50 in experiment [22] is 6.77 µM; in experiment [23], 7.55 µM. The compound also had a CC50 in [24] greater than 50 µM.
`COc1cccn2c(C(=O)N3CCCCC3)c(C(F)(F)F)nc12` showed an IC50 in experiment [12] (Wolbachia) of 0.5 µM. The CC20 in experiment [10] is greater than 80 µM.

These data come from ChEMBL document CHEMBL3832761, “MMV Pathogen Box Bioactivity Data” (2017).
